Some results are limits rather than exact numbers.

The IC50 is the concentration at which inhibition is half-maximal.

The assay concerns the target T1, Streptococcus pneumonia UPPS (Streptococcus pneumoniae serotype 4, UniProt Q97SR4).
T1 construct: His-tag (N)
T1 sequence (Q97SR4 1-252): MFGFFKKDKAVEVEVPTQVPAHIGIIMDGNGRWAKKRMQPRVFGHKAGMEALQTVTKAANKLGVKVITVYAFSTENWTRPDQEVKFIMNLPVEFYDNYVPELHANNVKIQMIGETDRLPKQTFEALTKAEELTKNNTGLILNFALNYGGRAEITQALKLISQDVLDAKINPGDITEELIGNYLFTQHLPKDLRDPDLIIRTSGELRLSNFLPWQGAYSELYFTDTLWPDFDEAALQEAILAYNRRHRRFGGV
The assay can be described thus: Determination of binding to UPPS (inorganic phosphate release, Biomol Green). In kind it is biochemical. The following applies: FPP 3 μM, IPP 16 μM; 20 minutes preincubation with compound. The procedure:
The ability of several of the compounds described herein to bind to UPPS was also tested as follows.
Streptococcus pneumonia UPPS was cloned into pET-15b, expressed and purified as an N-terminal His-tag fusion using affinity chromatography. The working stock of UPPS was prepared by mixing the purified enzyme with liposome made from E. coli total lipids extract (Avanti Polar Lipis, Inc., Alabaster, Ala.). The substrates FPP and IPP and inorganic pyrophosphatase were purchased from Sigma. Biomol Green reagent was from Biomol International (Plymouth Meeting, Pa.). All other chemicals were from Sigma at the highest grade.
For testing a compound, UPPS was first incubated with the compound at desired concentrations for 20 minutes in the UPPS reaction buffer that contained 100 mM Tris-HCl, pH 7.3, 50 mM KCl, 1 mM MgCl2, 0.01% Triton X-100, and 20 μg/mL BSA. The reaction was then initiated by the addition of a mixture of FPP, IPP, and E. coli […] made in the same UPPS reaction buffer. The final concentrations for FPP and IPP were 3 μM and 16 μM, respectively. The inorganic phosphate generated in the reactions was then quantified with Biomol Green reagent, which was then used to determine the rate of the reaction and the inhibitory activity of the compound.
For example, the results of the binding assay for several compounds are shown the table below: […]
Turning to `Cc1ccc2nc(-c3ccc(NC(=O)C4=C(O)C(Cc5ccccc5)NC4=O)cc3)sc2c1` (centres unmarked) [compound 4], the IC50 lay within 10 to 50 µM.

Take `O=C(Nc1ccc(C2CCCCC2)cc1)C1=C(O)C(Cc2ccccc2)NC1=O` (centres unmarked) [compound 5]: the half-inhibitory concentration (IC50) was in the range of 0.01 to 10 µM.

In the case of `Cc1ccc2nc(-c3ccc(NC(=O)C4=C(O)C(c5ccccc5)NC4=O)cc3)sc2c1` (centres unmarked) [compound 6], the IC50 lay in the range of 0.01 to 10 µM.

`O=C(Nc1ccc(N2CCCCC2)cc1)C1=C(O)C(c2ccccc2)NC1=O` (centres unmarked) [compound 7]: the IC50 lay within 0.01 to 10 µM.

Take `N#Cc1ccccc1Oc1cccc(NC(=O)C2=C(O)C(c3ccccc3)NC2=O)c1` (centres unmarked) [compound 8]: the IC50 is 0.01 to 10 µM.

Take `O=C(Nc1ccc(Oc2ncc(C(F)(F)F)cc2Cl)cc1)C1=C(O)C(Cc2ccccc2)NC1=O` (centres unmarked) [compound 9]: the IC50 lay in the range of 0.01 to 10 µM.

For `O=C(Nc1ccc(Cc2ccccc2)cc1)C1=C(O)C(Cc2ccccc2)NC1=O` (centres unmarked) [compound 10], the IC50 lay within 0.01 to 10 µM.

In the case of `O=C(Nc1ccc(C2CCCCC2)cc1)C1=C(O)C(c2ccccc2)NC1=O` (centres unmarked) [compound 11], the IC50 lay in the range of 0.01 to 10 µM.

On to `COc1cccc(NC(=O)C2=C(O)C(c3ccccc3)NC2=O)c1` (centres unmarked) [compound 12], for which the IC50 lay in the range of 0.01 to 10 µM.

Turning to `O=C(Nc1ccc(N2CCOCC2)cc1)C1=C(O)C(c2ccccc2)NC1=O` (centres unmarked) [compound 13], the IC50 is 10 to 50 µM.

In the case of `O=C(Nc1ccc(-c2ccccc2)cc1)C1=C(O)C(c2ccccc2)NC1=O` (centres unmarked) [compound 14], the IC50 fell in the range of 0.01 to 10 µM.

Consider `CCC1C(O)=C(C(=O)Nc2ccc(C3CCCCC3)cc2)C(=O)N1C` (centres unmarked) [compound 15], for which the IC50 lay within 10 to 50 µM.

For the compound `O=C(Nc1ccc(-c2ccccc2)cc1)C1=C(O)C(c2ccccc2)NC1=O` (centres unmarked) [compound 16], the IC50 was 0.01 to 10 µM.

With `O=C(Nc1ccc(C2CCCCC2)cc1)C1=C(O)CN(Cc2ccccc2)C1=O` [compound 19], the IC50 fell in the range of 0.01 to 10 µM.

For the compound `O=C(Nc1ccc(CO)cc1)C1=C(O)C(Cc2ccccc2)NC1=O` (centres unmarked) [compound 22], the IC50 was over 50 µM.

For the compound `O=C(NC1CCCCC1)C1=C(O)C(Cc2ccccc2)NC1=O` (centres unmarked) [compound 23], the IC50 is over 50 µM.

On to `CC(C)CC1NC(=O)C(C(=O)NCc2ccc(-c3cccs3)cc2)=C1O` (centres unmarked) [compound 36], for which the IC50 was 0.01 to 10 µM.

As for `O=C(Nc1cccc(Oc2ccccc2)c1)C1=C(O)C(CC2CCCCC2)NC1=O` (centres unmarked) [compound 49], the IC50 lay in the range of 0.01 to 10 µM.

As to `CCCCCCOc1ccc(NC(=O)C2=C(O)C(CC(C)C)NC2=O)cc1` (centres unmarked) [compound 52], the IC50 is 0.01 to 10 µM.

`O=C(NCCSCc1c(Cl)cccc1Cl)C1=C(O)C(Cc2ccccc2)NC1=O` (centres unmarked) [compound 54]: the IC50 lay within 10 to 50 µM.

For `O=C(Nc1ccc(C2CCCCC2)cc1)C1=C(O)C(c2ccccc2)NC1=O` (centres unmarked) [compound 56], the IC50 lay within 0.01 to 10 µM.

Take `N#Cc1ccc(-c2ccc(NC(=O)C3=C(O)C(Cc4ccccc4)NC3=O)cc2)cc1` (centres unmarked) [compound 66]: the IC50 lay in the range of 0.01 to 10 µM.

For the compound `CC(C)CC1NC(=O)C(C(=O)Nc2cccc(Oc3ccccc3)c2)=C1O` (centres unmarked) [compound 70], the IC50 was in the range of 0.01 to 10 µM.

`CCCCCCOc1ccc(NC(=O)C2=C(O)C(CCc3ccccc3)NC2=O)cc1` (centres unmarked) [compound 77]: the IC50 is 0.01 to 10 µM.

Regarding `O=C(Nc1cccc(Oc2ccccc2)c1)C1=C(O)C(CCc2ccccc2)NC1=O` (centres unmarked) [compound 80], the IC50 lay within 0.01 to 10 µM.

Take `CC(C)CC1NC(=O)C(C(=O)Nc2ccc(-c3ccccc3)cc2)=C1O` (centres unmarked) [compound 81]: the IC50 was in the range of 0.01 to 10 µM.

For `O=C(Nc1ccc(Oc2ccccc2)cc1)C1=C(O)C(CCc2ccccc2)NC1=O` (centres unmarked) [compound 86], the IC50 was 0.01 to 10 µM.

Regarding `O=C(Nc1ccc(N2CCCCC2)cc1)C1=C(O)C(CCc2ccccc2)NC1=O` (centres unmarked) [compound 97], the IC50 fell in the range of 0.01 to 10 µM.

For `O=C(Nc1ccc(Nc2ccccc2)cc1)C1=C(O)C(CC2CCCCC2)NC1=O` (centres unmarked) [compound 103], the IC50 was 0.01 to 10 µM.

For `CC(C)CC1NC(=O)C(C(=O)Nc2ccc(Nc3ccccc3)cc2)=C1O` (centres unmarked) [compound 104], the IC50 lay within 0.01 to 10 µM.

As for `O=C(Nc1ccc(-c2ccccc2)cc1)C1=C(O)C(Cc2c[nH]cn2)NC1=O` (centres unmarked) [compound 113], the IC50 lay in the range of 0.01 to 10 µM.

On to `O=C(Nc1ccc(C2CCCCC2)cc1)C1=C(O)C(c2ccccc2)NC1=O` (centres unmarked) [compound 116], for which the IC50 fell in the range of 0.01 to 10 µM.

Consider `CC(C)CC1NC(=O)C(C(=O)Nc2ccc(Oc3ccccc3)cc2)=C1O` (centres unmarked) [compound 123], for which the IC50 was in the range of 0.01 to 10 µM.

With `CC(C)CC1NC(=O)C(C(=O)Nc2ccc(Oc3nc4ccccc4s3)cc2)=C1O` (centres unmarked) [compound 126], the IC50 was in the range of 0.01 to 10 µM.

As to `O=C(Nc1ccc(N2CCCCC2)cc1)C1=C(O)C(CCc2ccccc2)NC1=O` (centres unmarked) [compound 143], the IC50 was 0.01 to 10 µM.

As for `CCN1CCN(c2ccc(NC(=O)C3=C(O)C(CC(C)C)NC3=O)cc2)CC1` (centres unmarked) [compound 148], the IC50 fell in the range of 0.01 to 10 µM.

On to `O=C(Nc1ccc(C2CCCCC2)cc1)C1=C(O)CC(c2ccccc2)NC1=O` (centres unmarked) [compound 164], for which the IC50 was 0.01 to 10 µM.

In the case of `O=C(Nc1ccc(OC2CCCCC2)cc1)C1=C(O)CC(c2ccccc2)NC1=O` (centres unmarked) [compound 166], the IC50 is 0.01 to 10 µM.

As for `O=C(Nc1ccc(C(F)(F)F)cc1)C1=C(O)CC(c2ccccc2)NC1=O` (centres unmarked) [compound 167], the IC50 is 0.01 to 10 µM.

In the case of `O=C(Nc1ccc(N2CCCCC2)cc1)C1=C(O)CC(c2ccccc2)NC1=O` (centres unmarked) [compound 168], the IC50 was 0.01 to 10 µM.

On to `O=C(Nc1ccc(-c2ccccc2)cc1)C1=C(O)CC(c2ccccc2)NC1=O` (centres unmarked) [compound 169], for which the IC50 was in the range of 0.01 to 10 µM.

`COc1ccc(NC(=O)C2=C(O)CC(c3ccccc3)NC2=O)cc1` (centres unmarked) [compound 170]: the IC50 lay within 0.01 to 10 µM.

In the case of `O=C(Nc1ccc(N2CCCCC2)cc1)C1=C(O)CC(Cc2ccccc2)NC1=O` (centres unmarked) [compound 174], the IC50 lay within 0.01 to 10 µM.

As for `COc1ccc(-c2nc(NC(=O)C3=C(O)CC(Cc4ccccc4)NC3=O)nn2-c2ccc(CO)cc2)cc1` (centres unmarked) [compound 177], the IC50 is 0.01 to 10 µM.

`O=C(Nc1ccc(-n2cccn2)cc1)C1=C(O)CC(c2ccccc2)NC1=O` (centres unmarked) [compound 181]: the IC50 lay in the range of 0.01 to 10 µM.

On to `CC(C)CC1CC(O)=C(C(=O)Nc2ccc(C3CCCCC3)cc2)C(=O)N1` (centres unmarked) [compound 182], for which the half-maximal inhibitory concentration (IC50) lay in the range of 0.01 to 10 µM.

As to `CC(C)CC1CC(O)=C(C(=O)Nc2ccc(OC(F)(F)F)cc2)C(=O)N1` (centres unmarked) [compound 183], the IC50 is 0.01 to 10 µM.

With `O=C(Nc1ccc(C2CCCCC2)cc1)C1=C(O)CC(C2CCCCC2)NC1=O` (centres unmarked) [compound 185], the IC50 lay in the range of 0.01 to 10 µM.

For the compound `O=C(Nc1ccc(-c2ccccc2)cc1)C1=C(O)CC(Cc2ccccc2)NC1=O` (centres unmarked) [compound 187], the half-maximal inhibitory concentration (IC50) was 0.01 to 10 µM.

As for `O=C(Nc1ccc(Oc2ccccc2)cc1)C1=C(O)CC(C2CCCCC2)NC1=O` (centres unmarked) [compound 189], the IC50 was 0.01 to 10 µM.

As to `CC(C)CC1CC(O)=C(C(=O)Nc2ccc(-n3cccn3)cc2)C(=O)N1` (centres unmarked) [compound 192], the IC50 lay within 0.01 to 10 µM.

For `O=C(Nc1ccc(-n2cccn2)cc1)C1=C(O)CC(C2CCCCC2)NC1=O` (centres unmarked) [compound 198], the IC50 is 0.01 to 10 µM.

As to `CC(C)CC1CC(O)=C(C(=O)Nc2ccc(S(=O)(=O)c3ccccc3)cc2)C(=O)N1` (centres unmarked) [compound 202], the IC50 was 10 to 50 µM.

In the case of `O=C(Nc1ccc(S(=O)(=O)c2ccccc2)cc1)C1=C(O)CC(C2CCCCC2)NC1=O` (centres unmarked) [compound 206], the IC50 was in the range of 0.01 to 10 µM.

As for `O=C1NCC(CC2CCCCC2)C(O)=C1C(=O)Nc1ccc(-n2ccnc2)cc1` (centres unmarked) [compound 221], the IC50 lay within 0.01 to 10 µM.

Regarding `CC1CC(O)=C(C(=O)Nc2ccc(Oc3ccccc3)cc2)C(=O)N1` (centres unmarked) [compound 223], the IC50 is over 50 µM.
